Patent US7482358B2, “Imidazoline compounds” (Banyu Pharmaceutical Co., Ltd., priority 2000, dated 2009)
Where two headings read alike, the source gives them in different places.

Key:
human NPY Y5 receptor = target: T1, human NPY Y5 receptor (Homo sapiens, UniProt Q15761); test: NPY binding inhibition test ([125I] peptide YY binding to membranes of cells expressing NPY Y5 receptor); settings: against specific [125I] peptide YY binding, 25° C., 2 hours; read-out: IC50, inhibitory activities on NPY receptor binding
T1 construct: expressed in transfected cells; host or cells: COS-7, CHO and LM(tk-)
T1 sequence (Q15761 1-445): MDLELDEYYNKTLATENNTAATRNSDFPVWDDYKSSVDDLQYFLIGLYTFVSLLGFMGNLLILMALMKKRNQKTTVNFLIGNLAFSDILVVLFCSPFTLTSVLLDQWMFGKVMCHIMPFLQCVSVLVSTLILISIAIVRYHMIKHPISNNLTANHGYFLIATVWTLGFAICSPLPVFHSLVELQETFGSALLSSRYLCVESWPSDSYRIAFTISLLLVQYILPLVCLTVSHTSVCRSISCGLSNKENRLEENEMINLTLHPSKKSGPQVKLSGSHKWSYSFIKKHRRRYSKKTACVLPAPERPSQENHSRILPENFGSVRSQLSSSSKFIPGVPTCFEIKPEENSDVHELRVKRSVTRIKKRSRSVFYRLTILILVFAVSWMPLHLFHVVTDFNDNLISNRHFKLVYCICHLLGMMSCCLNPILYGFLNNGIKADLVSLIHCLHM
Description: These obtained expression vectors were transfected to host cells COS-7, CHO and LM(tk-)(American Type Culture Collection) by cationic lipid method (Confer Proceedings of the National Academy of Sciences of the United States of America, vol. 84:7413(1987)) to give recombinant cells which express NPY Y5 receptor.
A membrane sample prepared from the cells which expressed NPY Y5 receptor was incubated together with a test compound and (^125I) peptide YY (made by NEN) (20,00 cpm) in an assay buffer (25 mM Tris buffer, pH7.4, containing 10 mM magnesium chloride, 1 mM phenylmethylsulfonyl fluoride, 0.1% bacitracin and 0.5% bovine serum albumin) at 25° C. for 2 hours, then filtered through a glass filter GF/C and washed with 5 mM Tris buffer (pH7.4) containing 0.3% BSA. The radioactivity on the glass filter was measured. Nonspecific binding was measured in the presence of 1 μM peptide YY and a 50% Inhibitory Concentration (IC50) of the test compound against specific peptide YY binding was determined (Confer Endocrinology, vol. 131: 2090(1992)).

[1] = Brain and cerebrospinal fluid penetration test; type: in vivo, male SD rats; settings: 2 hours after oral administration (10 mg/kg), rat; for concentration at 2 h: male, Sprague-Dawley
Description: Pharmacological Test 4 (Brain and Cerebrospinal Fluid Penetration Test)
The tested compound was administered orally or intravenously to male SD rats (7-10 weeks old, 200-400 g). The rats anesthetized with ether, and the all blood were taken at predefined time points with a heparinized syringe from the abdominal aorta. Further, the rats were cut the skin of occipital region of head and inserted a 30 G dental needle between cervical vertebrae, into subarachnoid cavity. And then, 50-100 μL of cerebrospinal fluid was collected in a 1 mL syringe through a tube connected with the 30G dental needle, followed by taking out the brain. To the plasma obtained from the centrifuged blood sample (4° C., 6,000 rpm, for 10 minutes), 3-fold volume of ethanol including the internal standard substances was added and the mixture was stirred. To the brain sample, 2 mL of water was added and the mixture was homogenized. To an aliquot of the homogenized mixture, 3-fold volume of ethanol including the internal standard substances was added, followed by stirring. To the cerebrospinal fluid, 3-fold volume of ethanol containing the internal standard substances was added, followed by stirring. The above samples were left at −20° C. for 20 minutes and separated by centrifuge (4° C., 12,000 g, for 10 minutes). The supernatant was analyzed by LC/MS/MS and then each concentration in plasma, brain and cerebrospinal fluid was measured by the relative calibration curve method.

[2] = Test for pharmacokinetics; type: in vivo; settings: male SD rats, overnight fasting, oral or intravenous
Description: Pharmacological Test 3 (Test for Pharmacokinetics)
The tested compound was administered orally or intravenously to male SD rats (7-10 weeks old, 200-400 g) under overnight fasting condition, and about 100 μL of blood was taken from tail vein using a heparinized capillary at predefined time points. The blood samples were separated by centrifuge (4° C., 6,000 rpm, for 10 minutes) to obtain plasma. To the plasma, 3-fold volume of ethanol containing the internal standard substances was added and the mixture was stirred, then left at −20° C. for 20 minutes, followed by centrifugation (4° C., 10,000 rpm for 10 minutes). The supernatant was analyzed by LC/MS/MS and then the concentration of the test compound in plasma was measured by the relative calibration curve method.

Compound	melting point	also measured
Fc1ccc(C2(c3ccc(F)cc3)CNC(c3cccs3)=N2)cc1 [Example 9-7, 4,4-bis(4-fluorophenyl)-2-(2-thienyl)-2-imidazoline]	156 to 160 °C	–
Cc1ccc(C2(c3ccccc3)CNC(c3cccc(C#N)c3)=N2)cc1 (stereo not shown) [Example 5-11, 2-(3-cyanophenyl)-4-(4-methylphenyl)-4-phenyl-2-imidazoline]	179 to 180 °C	–
O=[N+]([O-])c1cccc(C2=NC(c3ccc(F)cc3)(c3ccc(F)cc3)CN2)c1 [Example 5-13, 4,4-bis(4-fluorophenyl)-2-(3-nitrophenyl)-2-imidazoline]	156 to 158 °C	–
CN(C)c1ccc(C2(c3ccccc3)CNC(c3cccc(C#N)c3)=N2)cc1 (stereo not shown) [Example 5-27, 2-(3-cyanophenyl)-4-(4-dimethylaminophenyl)-4-phenyl-2-imidazoline]	210 to 213 °C	–
CC1NC(c2cnccn2)=NC1(c1ccc(F)cc1)c1ccc(F)cc1 (stereo not shown) [Example 7, 4,4-bis(4-fluorophenyl)-5-methyl-2-pyrazinyl-2-imidazoline]	–	IC50 (human NPY Y5 receptor): 3.4 nM; cerebral concentration [1]: 2.95 nM/g; concentration at 2 h ([1]; cerebrospinal fluid, read-out: cerebrospinal concentration): 32 nM; concentration at 2 h ([1]; plasma, read-out: plasma concentration): 730 nM; half-life ([2]; Sprague-Dawley, rat, plasma, read-out: half-life in blood (converted)): 5.1 h; biological availability ratio [2]: 35%
N#Cc1ccnc(C2=NC(c3ccc(F)cc3)(c3ccnc(F)c3)CN2)c1 (stereo not shown) [Example 14-2, 2-(4-cyano-2-pyridyl)-4-(4-fluorophenyl)-4-(2-fluoro-4-pyridyl)-2-imidazoline]	169 to 171 °C	–
CS(=O)(=O)c1cccc(C2=NC(c3ccc(F)cc3)(c3ccc(F)cc3)CN2)c1 [Example 5-34, 4,4-bis(4-fluorophenyl)-2-(3-methylsulfonylphenyl)-2-imidazoline]	209 to 212 °C	–
Cc1cccc(C2=NC(c3ccc(F)cc3)(c3ccc(F)cc3)CN2)c1 [Example 9-6, 4,4-bis(4-fluorophenyl)-2-(3-methylphenyl)-2-imidazoline]	148 to 149 °C	–
Fc1ccc(C2(c3ccc(F)cc3)CNC(c3cccc(OC(F)(F)F)c3)=N2)cc1 [Example 9-4, 4,4-bis(4-fluorophenyl)-2-(3-trifluoromethoxyphenyl)-2-imidazoline]	114 to 117 °C	–
N#Cc1cccc(C2=NC(c3ccccc3)(C3CCCCC3)CN2)c1 (stereo not shown) [Example 5-42, 2-(3-cyanophenyl)-4-cyclohexyl-4-phenyl-2-imidazoline]	151 to 152 °C	–
c1ccc(C2(c3ccccc3)CNC(c3cnccn3)=N2)cc1 [Example 5-31, 4,4-diphenyl-2-pyrazinyl-2-imidazoline]	183 to 184 °C	–
N#Cc1cccc(C2=NC(c3cccc(F)c3)(c3cccc(F)c3)CN2)c1 [Example 5-1, 2-(3-cyanophenyl)-4,4-bis(3-fluorophenyl)-2-imidazoline]	–	IC50 (human NPY Y5 receptor): 2.3 nM
N#Cc1cccc(C2=NC(c3ccccc3)(C3CCC3)CN2)c1 (stereo not shown) [Example 5-46, 2-(3-cyanophenyl)-4-cyclobutyl-4-phenyl-2-imidazoline]	117 to 118 °C	–
Fc1ccc(C2(c3ccc(F)cc3)CNC(c3ccsc3)=N2)cc1 [Example 9-10, 4,4-bis(4-fluorophenyl)-2-(3-thienyl)-2-imidazoline]	160 to 163 °C	–
